Source: article PMC11596563, “N-Aryl Benzimidazole and Benzotriazole Derivatives and Their Hybrids as Cytotoxic Agents: Design, Synthesis and Structure–Activity Relationship Studies” (Molecules, 2024)

Columns and labels:
[1] = tested on: SW-480; experiment: MTT test, cytotoxic effect; type: cell-based; settings: Homo sapiens, SW480, 24 h treatment, 0.1 to 100 µM, concentration that causes 50% cell death
Experimental: (§1) At the first stage of biological testing, we studied the effect of the synthesized compounds on the survival of cells of both tumoral and normal origin. […] In our work, the cytotoxic profile of the synthesized molecules was assessed using the MTT test, based on the ability of a colorless tetrazolium salt (3-[4,5-dimethylthiazol-2-yl]-2,5-diphenyltetrazolium bromide, MTT) to be reduced to colored formazan in the presence of the mitochondrial enzymes of living cells. For this purpose, a number of cell lines of tumoral origin (SH-SY5Y, A549, MCF-7 and SW-480), as well as normal origin (Hek-293), were used.
(§2) For the experiments, we used tumor cell cultures SH-SY5Y, human neuroblast-like cells, A549, human lung adenocarcinoma, MCF-7, human mammary adenocarcinoma, SW-480 and human colorectal adenocarcinoma, as well as cells of normal origin obtained from human embryonic kidneys, Hek-293.
(§3) All cells were cultured in the Dulbecco Modified Eagle’s Medium (DMEM) with a high glucose content, 10% fetal bovine serum and 1% penicillin-streptomycin as an antibiotic, in a moist incubator with 5% CO2 at 37°C.
(§4) To measure cellular metabolic activity, a colorimetric analysis was performed using the MTT reagent (3-(4,5–dimethylthiazol-2-yl)-2,5-diphenyltetrazolium bromide), which is an inhibitor of viable cells [73, 74].
(§5) • Briefly, cells in the logarithmic growth phase were digested and resuspended to adjust the cell density. The cells were then seeded in 96-well plates at a density of 10,000 cells per well. After 24 h of the incubation of the cells under the standard conditions described above (for the purpose of cell adhesion), the cells were treated with the synthesized compounds at different concentrations (0.1 to 100 µM) or a vehicle alone as a control (1% DMSO) for 24 h. After the incubation time of the cells with synthesized compounds, 5 mg/mL of MTT was added to the cells and incubated for 2 h at 37 °C. Next, the supernatant was discarded; after that, the formazan crystals were dissolved in a DMSO and the absorbance of each well was measured at 570 nm using a multifunctional microplate reader, Cytation3 (Biotech Tools Inc., Winooski, USA).

[2] = tested on: SH-SY5Y; experiment: cells; settings: Homo sapiens, 24 h, read-out: IC50 of the cytotoxic effect, SH-SY5Y
Experimental: as §1, §2, §3, §4, §5

[3] = tested on: A549; experiment: MTT test, cytotoxic effect; type: cell-based; settings: Homo sapiens, 24 h treatment, 0.1 to 100 µM, concentration that causes 50% cell death
Experimental: as §1, §2, §3, §4, §5

[4] = tested on: MCF-7; experiment: MTT test, cytotoxic effect; type: cell-based; settings: Homo sapiens, MCF7, 24 h treatment, 0.1 to 100 µM, concentration that causes 50% cell death
Experimental: as §1, §2, §3, §4, §5

[5] = MTT test, cytotoxic effect on cells of normal origin; type: cell-based, human; settings: human, Hek-293 cells (normal origin), 24 h treatment, 0.1 to 100 µM, normal cells, concentration that causes 50% cell death
Experimental: as §1, §2, §3, §4, §5

[6] = tested on: Hek-293; experiment: as above; type: cell-based, human; settings: Hek-293
Experimental: as §1, §2, §3, §4, §5

[7] = tested on: Fe(II)-induced lipid peroxidation (LPO) of rat brain homogenate; experiment: Fe(II)-induced lipid peroxidation, modified TBARS test; type: biochemical; settings: Fe(II) 500 μM; rat brain homogenate 2 mg/mL; 1 to 300 μM; read-out: IC50 of the lipid peroxidation inhibitory effect
Experimental: In our work, the antioxidant status of the compounds was determined by their ability to influence the process of Fe(II)-induced lipid peroxidation (LPO) of rat brain homogenate (2 mg/mL). The effect of the substances on LPO was studied using a modified version of the TBA test in a plate format. This test is based on the reaction of 2-thiobarbituric acid with intermediate LPO products, resulting in the formation of a colored trimethine complex, the main role in the formation of which belongs to malondialdehyde. […] This was expressed in a decrease in the level of malondialdehyde in the system by 70, 79 and 71%, respectively, tending to the values of the well-known antioxidant Trolox. Additionally, the IC50 values of the lipid peroxidation inhibitory effect were calculated for these molecules, the values of which are presented in Figure 2B.
To obtain rat brain homogenate, an animal previously anesthetized in a CO2 chamber was decapitated using a guillotine. The brain was homogenized in a buffer containing KCl (120 mM) and HEPES (20 mM), pH = 7.4 at 4 ° C and centrifuged at 1500 g to obtain a supernatant.
The intensity of the lipid peroxidation of the rat brain homogenate was evaluated using a modified TBARS test. […] In the wells of the negative control, the Fe(II) was replaced with water; in samples with a positive control, a solvent was introduced instead of the studied compounds.
At the end of incubation, a TBA reagent ([…] thiobartituric and 1% trichloroacetic acids dissolved in 0.25 N HCl) was added to each well and heated at 90 °C for 90 min.

| SMILES | IC50 [1] [µM] | IC50 [2] [µM] | melting point [°C] | IC50 [3] [µM] | IC50 [4] [µM] | IC50 at 24 h [5] [µM] | cytotoxic effect on cell line of normal origin [6] | IC50 [7] [µM] |
| --- | --- | --- | --- | --- | --- | --- | --- | --- |
| O=[N+]([O-])c1cc(C(F)(F)F)ccc1-n1cnc2ccccc21 [3a, 1-(2-Nitro-4-(trifluoromethyl)phenyl)-1H-benzimidazole] | ≥ 100 | 62.2 ± 0.11 | 130 to 132 | ≥ 100 | 92.4 ± 1.4 | 77.3 ± 2.12 | – | – |
| O=[N+]([O-])c1cc(Cl)ccc1-n1cnc2ccccc21 [3b, 1-(4-Chloro-2-nitrophenyl)-1H-benzimidazole] | ≥ 100 | ≥ 100 | 102 to 105 | ≥ 100 | ≥ 100 | ≥ 100 | – | – |
| O=[N+]([O-])c1cc(C(F)(F)F)ccc1-n1nnc2ccccc21 [3c, 1-[2-Nitro-4-(trifluoromethyl)phenyl]-1H-benzotriazole] | ≥ 100 | ≥ 100 | 133 to 136 | ≥ 100 | ≥ 100 | ≥ 100 | – | – |
| CCOC(=O)c1ccc(-n2nnc3ccccc32)c([N+](=O)[O-])c1 [3d, Ethyl 4-(1H-benzotriazol-1-yl)-3-nitrobenzoate] | ≥ 100 | ≥ 100 | 115 to 119 | ≥ 100 | ≥ 100 | ≥ 100 | – | – |
| O=[N+]([O-])c1cc(Cl)ccc1-n1nnc2ccccc21 [3e, 1-(4-Chloro-2-nitrophenyl)-1H-benzotriazole] | ≥ 100 | ≥ 100 | 134 to 137 | ≥ 100 | ≥ 100 | ≥ 100 | – | – |
| Nc1cc(C(F)(F)F)ccc1-n1cnc2ccccc21 [4a, 2-(1H-benzimidazol-1-yl)-5-(trifluoromethyl)aniline] | 84.03 ± 0.38 | 66.75 ± 0.41 | 209 to 210 | 67.17 ± 0.12 | 65.26 ± 0.07 | 82.89 ± 0.46 | – | – |
| Nc1cc(Cl)ccc1-n1cnc2ccccc21 [4b, 2-(1H-benzimidazol-1-yl)-5-chloroaniline] | ≥ 100 | ≥ 100 | 192 to 195 | ≥ 100 | ≥ 100 | ≥ 100 | – | – |
| Nc1cc(C(F)(F)F)ccc1-n1nnc2ccccc21 [4c, 2-(1H-benzotriazol-1-yl)-5-(trifluoromethyl)aniline] | ≥ 100 | 39.59 ± 0.05 | 136 to 139 | 65.38 ± 0.17 | 75.2 ± 1.43 | ≥ 100 | without affecting the survival | – |
| CCOC(=O)c1ccc(-n2nnc3ccccc32)c(N)c1 [4d, Ethyl 3-amino-4-(1H-benzotriazol-1-yl)benzoate] | ≥ 100 | ≥ 100 | 132 to 136 | ≥ 100 | ≥ 100 | ≥ 100 | – | – |
| Nc1cc(Cl)ccc1-n1nnc2ccccc21 [4e, 2-(1H-benzotriazol-1-yl)-5-chloroaniline] | ≥ 100 | 99.1 ± 1.47 | 154 to 156 | 91.87 ± 0.02 | 82.48 ± 0.32 | 87.4 ± 1.42 | – | – |
| O=[N+]([O-])c1cc(C(F)(F)F)ccc1Nc1cc(C(F)(F)F)ccc1-n1cnc2ccccc21 [5a, N-[2-(1H-benzimidazol-1-yl)-5-(trifluoromethyl)phenyl]-2-nitro-4-(trifluoromethyl)aniline] | ≥ 100 | ≥ 100 | 180 to 183 | ≥ 100 | ≥ 100 | ≥ 100 | – | – |
| O=[N+]([O-])c1cc(C(F)(F)F)ccc1Nc1cc(C(F)(F)F)ccc1-n1nnc2ccccc21 [5b, N-[2-(1H-benzotriazol-1-yl)-5-(trifluoromethyl)phenyl]-2-nitro-4-(trifluoromethyl)aniline] | ≥ 100 | ≥ 100 | 203 to 204 | ≥ 100 | ≥ 100 | ≥ 100 | – | – |
| CCOC(=O)c1ccc(Nc2cc(C(F)(F)F)ccc2-n2nnc3ccccc32)c([N+](=O)[O-])c1 [5c, Ethyl 4-[2-(1H-benzotriazol-1-yl)-5-(trifluoromethyl)anilino]-3-nitrobenzoate] | ≥ 100 | ≥ 100 | 192 to 196 | ≥ 100 | ≥ 100 | ≥ 100 | – | – |
| O=[N+]([O-])c1cc(C(F)(F)F)ccc1Nc1cc(Cl)ccc1-n1nnc2ccccc21 [5d, N-[2-(1H-benzotriazol-1-yl)-5-chlorophenyl]-2-nitro-4-(trifluoromethyl)aniline] | ≥ 100 | ≥ 100 | 178 to 181 | ≥ 100 | ≥ 100 | ≥ 100 | – | – |
| FC(F)(F)c1ccc(-n2nnc3ccccc32)c(-n2cnc3cc(C(F)(F)F)ccc32)c1 [7a, 1-{4-(trifluoromethyl)-2-[5-(trifluoromethyl)-1H-benzimidazol-1-yl]phenyl}-1H-benzotriazole] | ≥ 100 | ≥ 100 | 124 to 128 | ≥ 100 | ≥ 100 | ≥ 100 | – | – |
| CCOC(=O)c1ccc2c(c1)ncn2-c1cc(C(F)(F)F)ccc1-n1nnc2ccccc21 [7b, Ethyl 1-[2-(1H-benzotriazol-1-yl)-5-(trifluoromethyl)phenyl]-1H-benzimidazole-5-carboxylate] | ≥ 100 | ≥ 100 | 100 to 104 | ≥ 100 | ≥ 100 | ≥ 100 | – | – |
| FC(F)(F)c1ccc2c(c1)ncn2-c1cc(Cl)ccc1-n1nnc2ccccc21 [7c, 1-{4-Chloro-2-[5-(trifluoromethyl)-1H-benzimidazol-1-yl]phenyl}-1H-benzotriazole] | ≥ 100 | ≥ 100 | 136 to 141 | ≥ 100 | 45.12 ± 0.22 | 36.27 ± 0.14 | – | – |
| ONc1cc(C(F)(F)F)ccc1-n1cnc2ccccc21 [8a, N-(2-(1H-benzimidazol-1-yl)-5-(trifluoromethyl)phenyl)hydroxylamine] | – | – | 153 to 156 | – | – | – | – | – |
| ONc1cc(C(F)(F)F)ccc1-n1nnc2ccccc21 [8b, N-(2-(1H-benzotriazol-1-yl)-5-(trifluoromethyl)phenyl)hydroxylamine] | – | – | 151 to 154 | – | – | – | – | – |
| Cc1c(C)c2c(c(C)c1O)CCC(C)(C(=O)O)O2 (stereo not shown) [Trolox, reference compound] | – | – | – | – | – | – | – | 32.45 ± 0.24 |
